Source: ChEMBL document CHEMBL1201862, “PubChem BioAssay data set” (2004)
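Protocol summary: plate cells (96-well), add compound at 5 concentrations, incubate 48 h, interpolate endpoints linearly. GI50: concentration for 50% inhibition of growth.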 Activity calls are given as the source filed them. No stated cut-off is given here; in the data, active = GI50 up to about 1.1 µM and inactive = higher.

Tests used:
Assay in all cases: NCI tumour cell line growth inhibition, 48 h
MOLT-4 = system: MOLT-4
SF-295 = system: SF-295
HCT-116 = system: HCT-116
UACC-62 = system: UACC-62
HCT-15 = system: HCT-15
U-251 = system: U-251
HT-29 = system: HT-29
UO-31 = system: UO-31
MDA-MB-435 = system: MDA-MB-435
SNB-75 = system: SNB-75
UACC-257 = system: UACC-257
HCC 2998 = system: HCC 2998
CAKI-1 = system: CAKI-1
SK-MEL-28 = system: SK-MEL-28
RPMI-8226 = system: RPMI-8226
NCI-H23 = system: NCI-H23
A498 = system: A498
SR = system: SR
SF-268 = system: SF-268
M14 = system: M14
786-0 = system: 786-0
SK-MEL-5 = system: SK-MEL-5
MCF7 = system: MCF7
OVCAR-8 = system: OVCAR-8
Hs-578T = system: Hs-578T
ACHN = system: ACHN
CCRF-CEM = system: CCRF-CEM
KM12 = system: KM12
EKVX = system: EKVX
BT-549 = system: BT-549
SK-OV-3 = system: SK-OV-3
LOX IMVI = system: LOX IMVI
K562 = system: K562
NCI-H226 = system: NCI-H226
TK-10 = system: TK-10
HOP-62 = system: HOP-62
NCI/ADR-RES = system: NCI/ADR-RES
A549 = system: A549
HOP-92 = system: HOP-92
SK-MEL-2 = system: SK-MEL-2
OVCAR-4 = system: OVCAR-4
PC-3 = system: PC-3
DU-145 = system: DU-145
OVCAR-5 = system: OVCAR-5
NCI-H522 = system: NCI-H522
SF-539 = system: SF-539
MDA-MB-231 = system: MDA-MB-231
COLO 205 = system: COLO 205
OVCAR-3 = system: OVCAR-3
SW-620 = system: SW-620
T47D = system: T47D
SN12C = system: SN12C
SNB-19 = system: SNB-19
IGROV-1 = system: IGROV-1
NCI-H460 = system: NCI-H460
HL-60 = system: HL-60
Malme-3M = system: Malme-3M
MDA-N = system: MDA-N

Question: Which results are given for `CCOC(=O)/C=C(/C(=O)OCC)n1cnc2c(=O)[nH]c(NC(C)=O)nc21`?
Answer: GI50 (MOLT-4): > 100 µM (inactive); GI50 (SF-295): > 100 µM (inactive); GI50 (HCT-116): > 100 µM (inactive); GI50 (UACC-62): > 100 µM (inactive); GI50 (HCT-15): > 100 µM; GI50 (U-251): > 100 µM (inactive); GI50 (HT-29): > 100 µM (inactive); GI50 (UO-31): > 100 µM (inactive); GI50 (MDA-MB-435): > 100 µM (inactive); GI50 (SNB-75): > 100 µM (inactive); GI50 (UACC-257): > 100 µM (inactive); GI50 (HCC 2998): > 100 µM (inactive); GI50 (CAKI-1): > 100 µM (inactive); GI50 (SK-MEL-28): > 100 µM (inactive); GI50 (RPMI-8226): > 100 µM (inactive); GI50 (NCI-H23): > 100 µM (inactive); GI50 (A498): > 100 µM (inactive); GI50 (SR): > 100 µM (inactive); GI50 (SF-268): > 100 µM (inactive); GI50 (M14): > 100 µM (inactive); GI50 (786-0): > 100 µM (inactive); GI50 (SK-MEL-5): > 100 µM (inactive); GI50 (MCF7): > 100 µM (inactive); GI50 (OVCAR-8): > 100 µM (inactive); GI50 (Hs-578T): > 100 µM (inactive); GI50 (ACHN): > 100 µM (inactive); GI50 (CCRF-CEM): > 100 µM (inactive); GI50 (KM12): > 100 µM (inactive); GI50 (EKVX): > 100 µM (inactive); GI50 (BT-549): > 100 µM (inactive); GI50 (SK-OV-3): > 100 µM (inactive); GI50 (LOX IMVI): > 100 µM (inactive); GI50 (K562): > 100 µM (inactive); GI50 (NCI-H226): > 100 µM (inactive); GI50 (TK-10): > 100 µM (inactive); GI50 (HOP-62): > 100 µM (inactive); GI50 (NCI/ADR-RES): > 100 µM (inactive); GI50 (A549): > 100 µM (inactive); GI50 (HOP-92): > 100 µM (inactive); GI50 (SK-MEL-2): > 100 µM (inactive); GI50 (OVCAR-4): > 100 µM (inactive); GI50 (PC-3): > 100 µM (inactive); GI50 (DU-145): > 100 µM (inactive); GI50 (OVCAR-5): > 100 µM (inactive); GI50 (NCI-H522): > 100 µM (inactive); GI50 (SF-539): > 100 µM (inactive); GI50 (MDA-MB-231): > 100 µM (inactive); GI50 (COLO 205): > 100 µM (inactive); GI50 (OVCAR-3): > 100 µM (inactive); GI50 (SW-620): > 100 µM (inactive); GI50 (T47D): > 100 µM (inactive); GI50 (SN12C): > 100 µM (inactive); GI50 (SNB-19): > 100 µM (inactive); GI50 (IGROV-1): > 100 µM (inactive); GI50 (NCI-H460): > 100 µM (inactive); GI50 (HL-60): > 100 µM (inactive); GI50 (Malme-3M): > 100 µM (inactive); GI50 (MDA-N): > 100 µM (inactive)
